From ChEMBL document CHEMBL1681649, “Design, synthesis and biological evaluation of novel 4-hydroxybenzene acrylic acid derivatives” (Bioorg Med Chem Lett, 2011)

What was measured:
Mus musculus [1] = experiment: Antiinflammatory activity in xylene-induced Kunming mouse ear edema model assessed as suppression of ear swelling at 300 mg/kg, po; format: functional
Mus musculus [2] = experiment: Antiinflammatory activity in xylene-induced Kunming mouse ear edema model assessed as suppression of ear swelling at 150 mg/kg, po; format: functional
Mus musculus [3] = experiment: Antiinflammatory activity in xylene-induced Kunming mouse ear edema model assessed as suppression of ear swelling at 75 mg/kg, po; format: functional
Mus musculus [4] = experiment: Cardiotoxicity in Kunming mouse assessed as pathological changes at 150 mg/kg, po after 12 days; format: toxicity, organism-based; design: dose 150 mg/kg, route oral; conditions: in vivo, 288 h
Mus musculus [5] = experiment: Antiinflammatory activity in xylene-induced Kunming mouse ear edema model assessed as suppression of ear swelling at 100 mg/kg, po; format: functional
Mus musculus [6] = experiment: Cardiotoxicity in Kunming mouse assessed as pathological changes at 100 mg/kg, po after 12 days; format: toxicity, organism-based; design: dose 100 mg/kg, route oral; conditions: in vivo, 288 h

Structure (SMILES)	Activity (Mus musculus [1])	Activity (Mus musculus [3])	also measured
COc1cc(/C=C(/C(=O)O)c2ccc(S(C)(=O)=O)cc2)ccc1OC(C)=O	45.29%	12.38%	Activity (Mus musculus [2]): 26.12%; Activity (Mus musculus [4]): Non-toxic
COc1cc(/C=C(/C(=O)O)c2ccc(S(C)(=O)=O)cc2)ccc1O	9.97%	–	–
COc1ccc(/C=C(/C(=O)O)c2ccc(S(C)(=O)=O)cc2)cc1OC	15.92%	–	–
CC(=O)Oc1ccc(/C=C(/C(=O)O)c2ccc(S(C)(=O)=O)cc2)cc1	44.75%	23.34%	Activity (Mus musculus [2]): 32.87%
CCOC(=O)/C(=C/c1ccc(OC(C)=O)c(OC)c1)c1ccc(S(C)(=O)=O)cc1	24.11%	–	–
CCOC(=O)/C(=C/c1ccc(O)c(OC)c1)c1ccc(S(C)(=O)=O)cc1	34.62%	–	–
CCOC(=O)/C(=C/c1ccc(OC(C)=O)c(Br)c1)c1ccc(S(C)(=O)=O)cc1	–	0%	–
CS(=O)(=O)c1ccc(/C(=C\c2ccccc2)C(=O)O)cc1	17.49%	–	–
COc1cc(/C=C(/C(=O)O)c2ccccc2)ccc1OC(C)=O	21.86%	–	–
COc1ccc2c(c1)c(CC(=O)O)c(C)n2C(=O)c1ccc(Cl)cc1 [INDOMETHACIN]	–	–	Activity (Mus musculus [5]): 37.03%; Activity (Mus musculus [6]): Non-toxic
